The nature of assay [1]: Ferric reducing ability, Prussian blue method. The note with it: 100 μg/mL, pH 6.8 phosphate buffer; determined at 700 nm; mean ± SD, triplicate; the values are: absorbance at 700 nm. Here is the method:
Ferric reducing ability was defined as the ability of antioxidants to provide protons, which was administrated according to the Prussian blue method ([2]). A total 1 mL of BAG-2H peptide solution (100 μg/mL, dissolved in 0.2 mol/L of phosphate buffer, pH 6.8) was reacted with potassium ferricyanide (10 mg/mL, 4 mL) in the EDZF-C002 thermostatic vibrator (50°C, 220 rpm) for 30 min. The reaction solution was cooled to 25 ± 1°C and precipitated using an equal volume of 100 mg/mL trichloroacetic acid for 10 min. Then, the reaction solution was centrifuged at 3000 × g for 25 min, and 1 mL of the upper solution was pipetted and reacted with 1 mg/mL of FeCl3 (1.2 mL) to produce Prussian blue (potassium ferrocyanide). The concentration of potassium ferrocyanide produced was positively correlated with the ferric reducing ability of the sample ([37]), which was determined at 700 nm using a HD-UV90 ultraviolet–visible spectrophotometer (Holder Technology Co. LTD, Weifang, China).
As described by Wu et al. ([41]), the simulative gastric digestive fluid consisted of sodium chloride (0.18 mol/L), ultrapure water (180 mL), and 0.40 mg/mL of pepsin. […] The ACE inhibition capacity and antioxidant ability of the treated BAG-2H peptides were detected and compared to those of the undigested BAG-2H peptides.

Assay [2] can be described thus: Superoxide radical quenching, pyrogallol auto-oxidation method. The following applies: 100 μg/mL, mean ± SD, triplicate. As for the experimental part:
The free radical quenching ability of samples, including superoxide, 2,2′-hydrazine-bis (3-ethylbenzothiazolin-6-sulfonic acid) diamine salt cation (ABTS^+), and hydroxyl radicals, was determined using the pyrogallol auto-oxidation, potassium persulfate, and β-deoxyribose oxidation methods, according to the same procedures from Tyagi et al. ([6]), Lin et al. ([2]), and Wang et al. ([35]), respectively. Comparison was conducted when the samples were replaced by glutathione (0.1 mg/mL).
As described by Wu et al. ([41]), the simulative gastric digestive fluid consisted of sodium chloride (0.18 mol/L), ultrapure water (180 mL), and 0.40 mg/mL of pepsin. The simulation intestinal digestive juice was composed of NaHCO3 (0.625 g/mL), bile salt (3 g/100 mL), pancreatin (0.35 mg/mL), and 180 mL ultrapure water. In a glass triangle flask, 300 mg of the antihypertensive and antioxidant BAG-2H peptides, 60 mL of ultrapure water, and 150 mL of the simulative gastric fluid were mixed thoroughly. The flask was placed at 37°C in an EDZF-C002 thermostatic vibrator with shaking rate of 140 rpm. After 90 min, 180 mL of the simulative intestinal hydrolysis fluid was added and stirred at 37°C for 2 h. To stop the hydrolysis, the digestion solution in the flask was boiled for 6 min and then cooled by running water to room temperature. The ACE inhibition capacity and antioxidant ability of the treated BAG-2H peptides were detected and compared to those of the undigested BAG-2H peptides.

Ends that are not written are not given here.

For the substance “PVDFAGFY-ferrous chelate: ferrous chelate of PVDFAGFY prepared with ferrous chloride (also: ferrous chelate)”, the Ferric reducing ability, before gastrointestinal in assay [1] was determined as 0.225 ± 0.012. Also, the “Superoxide radical scavenging ability, before gastrointestinal” value in assay [2] is 69.55%; in assay [2] (listed as PVDFAGFY-Fe), 69.55% ± 3.41%b.

(Values after paper PMC12005989, “Purification, identification, and in silico screening of a multifunctional octapeptide from semen armeniacae glutelin-2 hydrolysates: restraining mechanisms to Keap1 and ACE, stability, and ferrous-transport efficiency” (Frontiers in Nutrition, 2025).)
